Measurements taken from patent publication US7745473B2, “Indole derivative for alkylating specific base sequence of DNA and alkylating agent and drug containing the derivative” (Kyoto University, priority 2004, dated 2010).
“Also recorded” adds a separate entry of the source.

Tests used:
[1] = test system: DNA fragment (SEQ ID NO:11) derived from pQBI63; assay: DNA alkylation of 5′-Texas Red-labeled DNA fragment (994 bp); type: biochemical; conditions: FIG. 5
Procedure: A 5′-Texas Red-labeled DNA fragment (994 bp) (pQBI63; SEQ ID NO:11) was prepared by a PCR method using a 20-base-pair primer, i.e., 5′-[…]-3′ (SEQ ID NO:12), and a 5′-Texas Red-labeled 20-base-pair primer, i.e., 5′-TexRed-[…]-3′ (SEQ ID NO:13), pQBI63 plasmid being used as a template.
(§1) Analysis by polyacrylamide gel electrophoresis was performed by the following process: A standard reaction solution containing the 5′-Texas Red-end-labeled DNA fragment (10 nM), DMF (10% (v/v)), and an agent having a concentration described above in a sodium phosphate buffer (5 mM, total volume: 10 μL, pH=7.0) was charged into a microfuge tube (Eppendorf) and left standing at 23° C. for 8 hours. After completion of the reaction, the reaction was quenched by the addition of calf thymus DNA (1 mM, 1 μL). The resulting mixture was shaken at 90° C. for 5 minutes. The DNA obtained by centrifugation under reduced pressure was dissolved by the addition of 8 μl, of loading dye (fushin red solution in DMF), shaken at 94° C. for 20 minutes, and then immediately cooled to 0° C. A 2-μL aliquot was separated electrophoretically on a 6% denaturing polyacrylamide gel using a Hitachi 5500-S DNA sequencer. The following tests were conducted in a similar way. […]

[2] = test system: 5′-YG(A/T)CR-3′ sequence; conditions: low concentration, dimer, both chains, sites 5 base pairs apart; cited from earlier work
[3] = test system: long-chain DNA (λ-F10906; SEQ ID NO:8); assay: DNA alkylation of 5′-Texas Red-labeled long-chain DNA, analysed by polyacrylamide gel electrophoresis; type: biochemical; conditions: λ-F10906, nanomolar concentrations, FIG. 4
Procedure: A 5′-Texas Red-labeled DNA fragment (537 bp) (λ-F10906; SEQ ID NO:8) was prepared by a PCR method using a 5′-Texas Red-labeled 23-base-pair primer, i.e., 5′-TexRed-[…]-3′ (λ-DNA forward, 10960-10982; SEQ ID NO:9), and a 20-base-pair primer, i.e., 5′-[…]-3′ (λ-DNA reverse, 37007-37026; SEQ ID NO:10), λ-DNA being used as a template.
(§2) Analysis by polyacrylamide gel electrophoresis was performed by the following process: A standard reaction solution containing the 5′-Texas Red-end-labeled DNA fragment (10 nM), DMF (10% (v/v)), and an agent having a concentration described above in a sodium phosphate buffer (5 mM, total volume: 10 μL, pH=7.0) was charged into a microfuge tube (Eppendorf) and left standing at 23° C. for 8 hours. After completion of the reaction, the reaction was quenched by the addition of calf thymus DNA (1 mM, 1 μL). The resulting mixture was shaken at 90° C. for 5 minutes. The DNA obtained by centrifugation under reduced pressure was dissolved by the addition of 8 μl, of loading dye (fushin red solution in DMF), shaken at 94° C. for 20 minutes, and then immediately cooled to 0° C. A 2-μL aliquot was separated electrophoretically on a 6% denaturing polyacrylamide gel using a Hitachi 5500-S DNA sequencer. The following tests were conducted in a similar way.
The reaction of compounds (3-2), (3-4), and (3-5) with DNA was studied using the long-chain DNA (λ-F10906; SEQ ID NO:8). The DNA-alkylating ability of each compound was evaluated.

[4] = test system: long-chain DNA (pUC-II; SEQ ID NO:4, pUC-I′; SEQ ID NO:1); assay: as above; type: biochemical; conditions: 8 hours, pUC-II and pUC-I′, FIG. 2
Procedure: A 5′-Texas Red-labeled DNA fragment (450 bp) (pUC-I′, SEQ ID NO:1) was prepared by a PCR method using a 5′-Texas Red-labeled 20-base-pair primer, i.e., 5′-TexRed-[…]-3′ (pUC18 forward, 780-799; SEQ ID NO:2), and a 20-base-pair primer, i.e., 5′-[…]-3′ (pUC18 reverse, 1459-1478; SEQ ID NO:3), puc18 being used as a template. The DNA fragment was in a double-stranded state including a complementary strand (the following fragments were in the same state).
A 5′-Texas Red-labeled DNA fragment (450 bp) (pUC-II, SEQ ID NO:4) was prepared by a PCR method using a 5′-Texas Red-labeled 21-base-pair primer, i.e., 5′-TexRed-[…]-3′ (pUC18 reverse, 1861-1881; SEQ ID NO:5), and a 19-base-pair primer, i.e., 5-TGTAAAACGACGGCCAGTG-3′ (pUC18 forward, 328-345; SEQ ID NO:6), puc18 being used as a template.
as §2
The reaction of compounds (3-2) and (3-3) prepared in the above-described Synthesis Examples with DNA was studied using the long-chain DNA (pUC-II; SEQ ID NO:4, pUC-I′; SEQ ID NO:1). An alkylation reaction was performed for 8 hours. The sequence alkylated was analyzed by polyacrylic gel electrophoresis for sequence determination. […] However, the difference in sequence recognition ability was observed. […] From the stand point of the sequence recognition ability, the molecular design of compound (3-2) was excellent.

[5] = test system: HLC-2 (human lung cancer-derived cell); conditions: read-out: 50% cell growth inhibitory concentration (IC50); HLC-2, 48 hours, 0.1% DMF
Procedure: (§3) HCT-116 (human colon cancer-derived cell), HeLa (human cervical cancer-derived cell), HLC-2 (human lung cancer-derived cell), and SH-SY-5Y (human neuroblast-derived cell) were treated with AcImImPyPy-γ-ImPy-Indole-CBI (3-2) (10^−5 to 10^−8 M with 0.1% DMF) for 48 hours to evaluate the effect of the compound as an anticancer agent.
(§4) Evaluation of anticancer activity was made by the following process: HCT-116, HeLa, HLC-2, and SH-SY-5Y cell lines were seeded into a 96-well flat bottom plate in complete media [RPMI1640 (HCT-116, SH-SY-5Y; Sigma-Aldrich Co.) each containing 10% fetal bovine serum and Dulbecco's […] (HeLa, HLC-2, 293T, WI-38; Sigma-Aldrich Co.)] at cell densities of 4.0×10^3, 3.6×10^3, 1.6×10^3, 7.0×10^2, 5.0×10^2, and 8.0×10^2 cells/well and were precultured for 24 hours in a CO2 incubator. The media were replaced with complete media containing 0.1% DMF and 10^−5 to 10^−8 M AcImImPyPy-γ-ImPy-Indole-CBI (3-2). Incubation was performed for 48 hours in the CO2 incubator. Then, 10 μL/well of a Cell Counting Kit-8 (Dojindo Laboratories) was added. The specimens were left standing for 2 hours in the CO2 incubator. Absorbance was measured with a microplate reader MPR-A4I (Tosoh Corp.).

[6] = test system: cancerous cell lines versus normal cell lines; conditions: cancerous versus normal cell lines (293T, WI-38)
Procedure: as §3, §4

[7] = test system: HCT-116 (human colon cancer-derived cell); conditions: read-out: 50% cell growth inhibitory concentration (IC50); HCT-116, 48 hours, 0.1% DMF
Procedure: as §3, §4

[8] = test system: SH-SY-5Y (human neuroblast-derived cell); conditions: read-out: 50% cell growth inhibitory concentration (IC50), 48 hours, 0.1% DMF
Procedure: as §3, §4

[9] = test system: HeLa (human cervical cancer-derived cell); conditions: read-out: 50% cell growth inhibitory concentration (IC50), 48 hours, 0.1% DMF
Procedure: as §3, §4

[10] = test system: 39 cultured human cancer cell lines; assay: Anticancer activity screening on 39 cultured human cancer cell lines (Japanese Foundation for Cancer Research); conditions: mean of 39 cultured human cancer cell lines
From the text: Evaluation of the anticancer activity on the 39 cultured human cancer cell lines from breast cancer cell line to prostate cancer cell line was made by screening test performed in The Japanese Foundation for Cancer Research.

[11] = test system: 727-bp DNA fragment (SEQ ID NO:14); assay: Sequence-specific alkylation of DNA by polyamide heterodimer; type: biochemical; conditions: 727-bp fragment, FIG. 7
Procedure: A 5′-Texas Red-labeled 727-bp DNA fragment (SEQ ID NO:14) was prepared by a PCR method using a 5′-Texas Red-labeled 20-base-pair primer, i.e., 5′-TexRed-[…]-3′ (SEQ ID NO:15), and a 21-base-pair primer, i.e., 5′-[…]-3′ (SEQ ID NO:16), a plasmid containing MLP into which the code base sequence of human β-globin was integrated being used as a template.
as §1

[12] = test system: DNA fragment (446 bp; SEQ ID NO:17) containing 24 repeats of a telomeric sequence; assay: DNA alkylation targeting telomeric sequence; type: biochemical; conditions: 446 bp fragment, nanomolar concentrations, FIG. 8
Procedure: A 5′-Texas Red-labeled 446-bp DNA fragment (SEQ ID NO:17 with a 24-times-repeated telomere sequence was prepared by a PCR method using a 5′-Texas Red-labeled 20-base pair primer, i.e., 5′-TexRed-[…]-3′ (SEQ ID NO:18), and a 20-base-pair primer, i.e., 5′-[…]-3′ (SEQ ID NO:19), pCR2.1 plasmid into which an oligomer having a repetitive telomere sequence was integrated from the cleavage site by EcoRI being used as a template. The resulting each DNA fragment was purified by filtration using Suprec-02. The concentration of each resulting product was determined by measuring UV absorption.
as §1, with “C.” for “C. A 2-μL aliquot was separated electrophoretically on a 6% denaturing polyacrylamide gel using a Hitachi 5500-S DNA sequencer. The following tests were conducted in a similar way.”

Molecule: CC(=O)Nc1cn(C)c(C(=O)Nc2cn(C)c(C(=O)Nc3cc(C(=O)Nc4cc(C(=O)NCCC(=O)Nc5cc(C(=O)Nc6cc(C(=O)NCCCC(=O)Nc7cn(C)c(C(=O)Nc8cc(C(=O)NCCC(=O)Nc9cn(C)c(C(=O)Nc%10cc(C(=O)Nc%11ccc%12[nH]c(C(=O)N%13CC%14CC%14%15C%13=CC(=O)c%13ccccc%13%15)cc%12c%11)n(C)c%10)n9)n(C)c8)n7)n(C)c6)n(C)c5)n(C)c4)n(C)c3)n2)n1 (stereo not shown) [compound (3-6), AcImImPyPyβPyPy-γ-ImPyβImPy-Indole-CBI]
- alkylated sites (sequence recognition) [1]: alkylation (site 2) due to 1-bp-mismatch recognition was observed; also recorded: alkylation of AT-rich base sequences (sites 1 and 3) was also observed
- efficiency of DNA alkylation [1]: efficiently alkylated 1,000-base-pair DNA at nanomolar concentrations

Molecule: ImPyLDu86
- alkylation efficiency [2]: 70%

Molecule: AcImImPyPy-γ-ImPy-Indole-CBI [compound (3-2)]
- sequence-specific DNA alkylation, alkylated sites [3]: Sequence-specific DNA alkylation (site 2 and 3: 5′-TGACCA-3′, site 4: 5′-AGACCA-3′, site 5: 5′-TGTCCA-3′)
- alkylated sites (sequence recognition ability) [4]: alkylation in only site 3 (5′-TGACCA-3′) and site 6 (5′-AGTCCA-3′), which were match sequences, was observed
- efficiency of DNA alkylation [4]: efficient DNA alkylation comparable with that of a known Py-Im polyamide having a vinyl linker was observed at nanomolar concentrations
- IC50 [5]: 53.5 nM
- anticancer activity against the cancerous cell lines relative to the normal cell lines [6]: about 10 times
- IC50 [7]: 74.2 nM
- IC50 [8]: 7.43 nM
- IC50 [9]: 59.7 nM
- mean log IC50 value of 39 cell lines ([10]; log value, FIG. 9): about −7
- IC50 ([10]; read-out: mean IC50 of 39 cell lines, printed in brackets after the log value): ~100 nM

Molecule: CC(=O)Nc1cn(C)c(C(=O)Nc2cn(C)c(C(=O)Nc3cc(C(=O)NCCC(=O)Nc4cn(C)c(C(=O)Nc5cc(C(=O)Nc6ccc7[nH]c(C(=O)N8CC9CC9%10C8=CC(=O)c8ccccc8%10)cc7c6)n(C)c5)n4)n(C)c3)n2)n1 (stereo not drawn) [compound (3-7), AcImImPy-β-ImPy-Indole-CBI]
- alkylated sites in the presence of compound (6) ([11]; compound (6) 500 nM, heterodimer): alkylation (site 4) based on accurate 10-base-pair recognition was observed
- alkylated sites, compound alone ([11]; nanomolar concentrations): efficient alkylation of sites 1 and 2 based on a hairpin mode of recognition and of site 3 based on a linear-chain mode of recognition

Molecule: CC(=O)Nc1cn(C)c(C(=O)Nc2cn(C)c(C(=O)Nc3cn(C)c(C(=O)NCCCC(=O)Nc4cc(C(=O)Nc5cc(C(=O)Nc6ccc7[nH]c(C(=O)N8CC(CCl)c9c8cc(O)c8ccccc98)cc7c6)n(C)c5)n(C)c4)n3)n2)n1 (stereo not shown) [compound (4-3), AcImImIm-γ-PyPy-Indole-seco-CBI]
- telomeric-sequence-specific alkylation [12]: Efficient telomeric-sequence-specific alkylation (5′-ACCCTA-3′) in a hairpin mode of recognition
